Data published in ChEMBL document CHEMBL1201862, “PubChem BioAssay data set” (2004).
The source made the active and inactive calls.

How the values were obtained:
[1] = inhibitors of SNCA 5'UTR-driven reporter translation, confirmation, H4 neuroglioma cells, luminescence (AID 1988); assay type: functional, cell-based
[2] = inhibitors of firefly luciferase expression or activity, dose response, H4 neuroglioma cells, luminescence (AID 1990); assay type: functional, cell-based
[3] = Luminescence Cell-Based Dose Response HTS to Identify Inhibitors of 5'UTR Stem-Loop Driven Prion Protein mRNA Translation in H4 Neuroglioblastoma Cells. [Related pubchem assays: 1827 (Project Summary), 1813 (Primary HTS)]; assay type: functional
[4] = target: T1, DNA repair protein RAD52 homolog (Homo sapiens, UniProt P43351); assay type: functional, biochemical
T1 sequence (P43351 whole entry): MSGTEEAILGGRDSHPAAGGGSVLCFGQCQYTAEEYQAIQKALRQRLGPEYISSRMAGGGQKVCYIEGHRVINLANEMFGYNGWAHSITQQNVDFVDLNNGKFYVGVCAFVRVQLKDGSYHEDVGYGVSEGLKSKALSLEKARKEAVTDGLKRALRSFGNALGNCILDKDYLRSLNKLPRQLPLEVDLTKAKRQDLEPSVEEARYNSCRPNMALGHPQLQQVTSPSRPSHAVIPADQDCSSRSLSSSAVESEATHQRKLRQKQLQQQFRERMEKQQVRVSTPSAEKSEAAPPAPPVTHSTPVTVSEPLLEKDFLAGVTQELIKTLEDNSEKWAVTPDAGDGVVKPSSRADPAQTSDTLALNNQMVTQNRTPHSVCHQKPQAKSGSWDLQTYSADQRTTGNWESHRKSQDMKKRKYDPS

Vero = experiment: cells; assay type: functional; conditions: Chlorocebus sabaeus
[5] = target: Photoreceptor-specific nuclear receptor (Homo sapiens, UniProt Q9Y5X4); assay type: functional, cell-based;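 also: CHO-S cells with Gal4-NCOR and VP16-NR2E3 two-hybrid luciferase reporter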
[6] = cytotoxicity in HEK-293T cells, dose response, cytotoxicity control for TCR NF-kB inhibitor project, luminescence, T-cell screen hits (AID 489026); assay type: functional, cell-based;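 also: cells exposed to compound about 14 hours before the viability readout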
HEK293 = experiment: inhibitors of LMP1-driven NF-kB reporter, dose response, cell-based, HEK293, luciferase, cherry-pick (AID 588343); assay type: functional; conditions: Homo sapiens
[7] = target: T2, Short transient receptor potential channel 4 (Mus musculus, UniProt Q9QUQ5); experiment: mouse TRPC4 channel activators, dose response, cell-based, HEK293 TRPC4/mu-opioid, Fluo-4 calcium (AID 434937); assay type: functional
T2 sequence (Q9QUQ5 whole entry): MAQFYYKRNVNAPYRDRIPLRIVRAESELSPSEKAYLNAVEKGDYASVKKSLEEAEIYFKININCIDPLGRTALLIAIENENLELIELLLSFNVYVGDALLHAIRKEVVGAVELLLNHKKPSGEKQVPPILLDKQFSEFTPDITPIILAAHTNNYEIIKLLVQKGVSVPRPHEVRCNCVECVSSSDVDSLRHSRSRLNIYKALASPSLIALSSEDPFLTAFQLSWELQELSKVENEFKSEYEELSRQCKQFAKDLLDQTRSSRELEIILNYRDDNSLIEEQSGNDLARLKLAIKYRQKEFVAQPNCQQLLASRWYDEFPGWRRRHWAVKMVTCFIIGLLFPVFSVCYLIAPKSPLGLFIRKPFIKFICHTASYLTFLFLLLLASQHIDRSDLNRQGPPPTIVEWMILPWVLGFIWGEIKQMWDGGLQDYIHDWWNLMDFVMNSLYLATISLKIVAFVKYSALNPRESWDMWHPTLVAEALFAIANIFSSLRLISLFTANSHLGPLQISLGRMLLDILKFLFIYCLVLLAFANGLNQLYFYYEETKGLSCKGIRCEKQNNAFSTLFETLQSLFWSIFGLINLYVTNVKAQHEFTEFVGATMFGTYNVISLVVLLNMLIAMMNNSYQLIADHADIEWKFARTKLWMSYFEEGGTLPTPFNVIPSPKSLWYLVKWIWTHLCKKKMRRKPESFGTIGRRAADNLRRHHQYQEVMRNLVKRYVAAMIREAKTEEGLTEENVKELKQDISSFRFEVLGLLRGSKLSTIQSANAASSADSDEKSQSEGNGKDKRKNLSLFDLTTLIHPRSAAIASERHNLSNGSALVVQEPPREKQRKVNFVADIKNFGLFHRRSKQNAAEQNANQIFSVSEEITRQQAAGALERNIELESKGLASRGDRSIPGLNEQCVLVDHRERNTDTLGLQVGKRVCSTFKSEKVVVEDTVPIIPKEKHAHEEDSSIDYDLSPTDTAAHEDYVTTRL

[8] = target: T3, Histone-lysine N-methyltransferase NSD2 (Homo sapiens, UniProt O96028); assay type: biochemical
T3 sequence (O96028 whole entry): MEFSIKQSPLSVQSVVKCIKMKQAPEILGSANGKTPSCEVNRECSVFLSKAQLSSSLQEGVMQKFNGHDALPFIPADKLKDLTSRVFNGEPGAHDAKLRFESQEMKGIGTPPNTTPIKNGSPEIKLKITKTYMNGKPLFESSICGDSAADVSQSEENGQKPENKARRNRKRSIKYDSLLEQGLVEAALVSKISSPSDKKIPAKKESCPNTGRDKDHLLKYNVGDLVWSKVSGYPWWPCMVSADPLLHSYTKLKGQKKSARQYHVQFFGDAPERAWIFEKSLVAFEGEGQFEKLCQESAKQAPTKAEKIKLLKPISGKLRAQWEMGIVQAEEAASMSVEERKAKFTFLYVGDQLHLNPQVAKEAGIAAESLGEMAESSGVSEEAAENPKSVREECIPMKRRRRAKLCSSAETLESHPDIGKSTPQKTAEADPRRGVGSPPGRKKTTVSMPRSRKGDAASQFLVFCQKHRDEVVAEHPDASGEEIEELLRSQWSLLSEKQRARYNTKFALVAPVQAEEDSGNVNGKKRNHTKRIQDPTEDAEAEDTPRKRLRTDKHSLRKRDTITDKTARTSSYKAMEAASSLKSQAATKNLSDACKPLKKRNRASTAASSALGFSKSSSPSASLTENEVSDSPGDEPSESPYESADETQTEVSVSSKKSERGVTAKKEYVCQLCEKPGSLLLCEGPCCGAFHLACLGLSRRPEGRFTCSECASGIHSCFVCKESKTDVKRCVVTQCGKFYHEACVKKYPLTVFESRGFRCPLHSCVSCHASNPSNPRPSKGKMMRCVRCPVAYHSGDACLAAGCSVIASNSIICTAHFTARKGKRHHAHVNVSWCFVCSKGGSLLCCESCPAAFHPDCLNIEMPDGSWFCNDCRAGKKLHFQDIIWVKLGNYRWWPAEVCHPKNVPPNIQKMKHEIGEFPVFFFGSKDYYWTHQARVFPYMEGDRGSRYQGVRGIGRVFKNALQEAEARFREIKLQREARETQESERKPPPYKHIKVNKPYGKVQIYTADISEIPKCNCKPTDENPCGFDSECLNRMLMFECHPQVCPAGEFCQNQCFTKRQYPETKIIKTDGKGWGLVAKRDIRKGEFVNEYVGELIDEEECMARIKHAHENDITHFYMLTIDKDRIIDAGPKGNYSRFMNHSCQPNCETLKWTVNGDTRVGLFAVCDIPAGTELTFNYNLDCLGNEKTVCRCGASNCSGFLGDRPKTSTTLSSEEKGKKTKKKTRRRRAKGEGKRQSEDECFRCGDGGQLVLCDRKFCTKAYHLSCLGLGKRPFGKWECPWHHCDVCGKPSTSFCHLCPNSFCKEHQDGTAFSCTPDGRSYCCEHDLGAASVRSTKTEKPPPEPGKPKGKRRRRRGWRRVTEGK

[9] = target: T4, High affinity choline transporter 1 (Homo sapiens, UniProt Q9GZV3); experiment: CHT inhibitors, dose response, cell-based, 5-point CRC, membrane potential dye (AID 504840); assay type: functional
T4 sequence (Q9GZV3 whole entry): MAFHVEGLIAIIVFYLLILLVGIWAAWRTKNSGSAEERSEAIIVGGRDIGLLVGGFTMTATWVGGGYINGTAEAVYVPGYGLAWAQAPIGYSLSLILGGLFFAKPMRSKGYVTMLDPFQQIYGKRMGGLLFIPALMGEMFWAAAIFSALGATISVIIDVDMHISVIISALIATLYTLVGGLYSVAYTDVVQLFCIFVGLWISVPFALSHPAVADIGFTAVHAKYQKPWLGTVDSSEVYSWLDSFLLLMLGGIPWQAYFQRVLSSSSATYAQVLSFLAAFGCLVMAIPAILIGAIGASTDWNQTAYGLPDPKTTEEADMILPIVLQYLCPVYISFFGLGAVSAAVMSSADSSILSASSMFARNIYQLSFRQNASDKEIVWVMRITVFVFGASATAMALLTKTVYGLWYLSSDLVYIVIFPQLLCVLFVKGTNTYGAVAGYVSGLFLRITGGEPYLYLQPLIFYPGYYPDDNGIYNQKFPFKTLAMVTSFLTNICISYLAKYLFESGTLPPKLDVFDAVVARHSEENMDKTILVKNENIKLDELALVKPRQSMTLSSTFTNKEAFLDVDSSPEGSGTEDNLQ

Streptococcus = experiment: Group A Streptococcus viability loss, dose response, counter-screen for streptokinase expression inhibitor project, luminescence, BacTiterGlo (AID 1915); assay type: functional, organism-based;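 also: potency for reduction of bacterial viability or growth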
[10] = C. albicans growth with fluconazole, confirmation, fluorescence, retest (AID 2467); assay type: functional, cell-based
[11] = test system: Streptococcus sp. 'group A'; experiment: growth inhibition of control SK(-) GAS strain, dose response, counter-screen for streptokinase expression inhibitor project, luminescence, kanamycin, BacTiterGlo, confirmation (AID 1900); assay type: functional, organism-based
[12] = NIH-3T3 fibroblast cytotoxicity, dose response, cytotoxicity control, cell-based, fluorescence, Alamar Blue, secondary assay (AID 2327); assay type: functional;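 also: NIH-3T3 mouse fibroblasts cultured with fluconazole at 8 µg/mL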

Photoreceptor-specific nuclear receptor, sequence (Q9Y5X4 whole entry, the tested form may be a part): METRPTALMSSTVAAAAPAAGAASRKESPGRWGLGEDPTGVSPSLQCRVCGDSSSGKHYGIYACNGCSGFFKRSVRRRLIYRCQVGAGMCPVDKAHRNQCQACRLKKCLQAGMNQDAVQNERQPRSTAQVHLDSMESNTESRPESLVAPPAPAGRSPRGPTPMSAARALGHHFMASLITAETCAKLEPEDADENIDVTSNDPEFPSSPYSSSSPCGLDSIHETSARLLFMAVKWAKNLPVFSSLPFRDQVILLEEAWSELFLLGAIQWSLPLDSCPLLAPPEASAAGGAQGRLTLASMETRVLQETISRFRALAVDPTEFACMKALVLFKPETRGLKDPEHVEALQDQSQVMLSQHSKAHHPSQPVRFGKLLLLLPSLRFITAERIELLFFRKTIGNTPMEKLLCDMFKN

Question: With `COc1cc2cc(-c3ccc(OC)c(OC)c3C)nc(N)c2cc1OC` as the molecule, how does the EC50 [1] read?
Answer: 0.344 µM (active)

Question: What about the EC50 [2] of the same molecule?
Answer: 0.597 µM (active)

Question: And the EC50 [3]?
Answer: 0.48 µM (active)

Question: And the AC50 [4]?
Answer: 12.4 µM (active)

Question: And the CC50 (Vero)?
Answer: 1.67 µM (active)

Question: With `CCC1(C)Cc2c(sc3[nH]c(=S)n(Cc4ccccc4)c(=O)c23)CO1` (stereo not drawn) as the molecule, how does the IC50 [5] read?
Answer: 4.95 µM (active)

Question: With `CC1=C(C(=O)OCc2ccc3c(c2)OCO3)C(c2ccc(Cl)cc2)NC(=O)N1` (stereo not drawn) as the molecule, how does the IC50 [6] read?
Answer: > 80 µM (inactive)

Question: What about the AC50 (HEK293) of the same molecule?
Answer: 0.299 µM (active)

Question: With `CCCCN(CC)CCNC(=O)c1ccc2c(Cl)c3c(nc2c1)CCC3` as the molecule, how does the EC50 [7] read?
Answer: 0.024 µM (active)

Question: What about the AC50 [8] of the same molecule?
Answer: > 20 µM (inactive)

Question: For `CC(C)(C)C(=O)Nc1ccc(Sc2ccc([N+](=O)[O-])cc2)cc1`, which IC50 [5] is on record?
Answer: 3.51 µM (active)

Question: What does the source list for `O=C1CC(O)(C(F)(F)F)Oc2c1ccc1ccccc21` (stereo not drawn)?
Answer: IC50 [9]: 12.9 µM (active); EC50 [7]: 9.44 µM (active)

Question: With `COc1ccc(NC(=O)c2cc3ccccc3oc2=O)cc1` as the molecule, how does the AC50 (HEK293) read?
Answer: 0.673 µM (active)

Question: For `COc1ccc(C(=O)NNC(=S)NC(=O)c2ccccc2)cc1`, which EC50 [1] is on record?
Answer: 15.5 µM (active)

Question: What about the EC50 (Streptococcus) of the same molecule?
Answer: 3.03 µM (active)

Question: And the EC50 [2]?
Answer: > 120 µM (not active)

Question: And the EC50 [3]?
Answer: 11.6 µM (active)

Question: And the EC50 [7]?
Answer: 5.96 µM (active)

Question: And the EC50 [10]?
Answer: 2.08 µM (active)

Question: And the EC50 [11]?
Answer: 1.18 µM (active)

Question: What about the EC50 [12] of the same molecule?
Answer: > 150 µM (inactive)

Question: Which EC50 [7] does the source give for `CCOC(=O)C1(CCOc2ccccc2)CCN(Cc2ccc(OC)c(O)c2)CC1` here?
Answer: 0.473 µM (active)
